# Laboratory results taken from US20090325959A1 (priority 2008, published 2009).
# Where two headings read alike, the source gives them in different places.
# What was measured:
# Format in all cases: biochemical
# ROCK1 = biological target: T1, ROCK1 (Homo sapiens, UniProt Q13464); assay: Rho kinase inhibition assay (IMAP fluorescence polarization), ROCK1;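 also: kinase reaction run 60 min at room temperature, then phosphorylated substrate captured on IMAP beads for 30 min, with fluorescence polarization read in mP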
# T1 construct: purchased Upstate/Chemicon 14-601
# T1 sequence (Q13464 17-535 limits assumed): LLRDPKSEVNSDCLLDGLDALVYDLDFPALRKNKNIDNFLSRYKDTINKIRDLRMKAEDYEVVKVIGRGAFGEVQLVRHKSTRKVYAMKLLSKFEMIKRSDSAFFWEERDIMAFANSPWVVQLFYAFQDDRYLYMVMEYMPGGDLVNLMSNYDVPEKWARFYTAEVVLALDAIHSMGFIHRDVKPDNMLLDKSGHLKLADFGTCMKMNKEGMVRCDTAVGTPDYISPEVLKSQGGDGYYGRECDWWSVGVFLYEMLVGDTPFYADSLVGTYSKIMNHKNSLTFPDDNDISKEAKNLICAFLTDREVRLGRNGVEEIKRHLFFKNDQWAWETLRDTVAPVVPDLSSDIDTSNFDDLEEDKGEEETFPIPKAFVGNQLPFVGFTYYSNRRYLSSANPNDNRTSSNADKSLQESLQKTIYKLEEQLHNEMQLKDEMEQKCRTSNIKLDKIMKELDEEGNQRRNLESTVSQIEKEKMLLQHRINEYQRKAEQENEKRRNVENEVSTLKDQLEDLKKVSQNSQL
# Procedure: (§1) Following the pre-incubation, 10 μM ATP was added to initiate the reaction. After 60 minutes at room temperature, Molecular Devices IMAP™ binding solution was added to bind phosphorylated substrate. After 30 minutes of incubation in the presence of the IMAP™ beads, the fluorescence polarization was read and the ratio was reported as mP. IC50 values for compounds and EC50 values for ATP were calculated using the Prism software from Graphpad.
# ROCK2 = biological target: T2, ROCK2 (Homo sapiens, UniProt O75116); assay: Rho kinase inhibition assay (IMAP fluorescence polarization), ROCK2;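 also: kinase reaction started with 10 µM ATP and run 60 min at room temperature, then phosphorylated substrate captured on IMAP beads for 30 min and fluorescence polarization read in mP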
# T2 construct: purchased Upstate/Chemicon 14-451
# T2 sequence (O75116 11-552 limits assumed): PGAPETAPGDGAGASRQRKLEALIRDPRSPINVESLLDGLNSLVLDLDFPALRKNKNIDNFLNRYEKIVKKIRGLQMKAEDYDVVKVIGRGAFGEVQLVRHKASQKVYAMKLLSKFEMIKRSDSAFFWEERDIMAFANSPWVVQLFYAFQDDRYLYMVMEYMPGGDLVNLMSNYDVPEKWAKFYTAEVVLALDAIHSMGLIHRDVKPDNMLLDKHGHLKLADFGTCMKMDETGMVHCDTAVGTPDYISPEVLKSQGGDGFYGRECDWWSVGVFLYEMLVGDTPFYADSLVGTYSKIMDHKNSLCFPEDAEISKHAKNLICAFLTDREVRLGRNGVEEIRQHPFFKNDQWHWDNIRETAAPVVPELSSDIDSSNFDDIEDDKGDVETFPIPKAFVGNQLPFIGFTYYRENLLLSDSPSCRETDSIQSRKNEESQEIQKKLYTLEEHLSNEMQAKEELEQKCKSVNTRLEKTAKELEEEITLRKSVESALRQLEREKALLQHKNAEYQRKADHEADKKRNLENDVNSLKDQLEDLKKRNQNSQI
# Procedure: as §1
# Akt3 human enzyme = biological target: T3, Akt3 human enzyme (Homo sapiens, UniProt Q9Y243); assay: Akt3 inhibition assay (IMAP FP); conditions: 30 μM ATP; Ki=IC50/(1+([ATP Challenge]/EC50 ATP)); read-out: Akt3 Ki, Avg;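 also: kinase reaction run 60 min at room temperature after 30 µM ATP start, phosphorylated substrate captured on IMAP beads and read as fluorescence polarization (mP)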
# T3 construct: purchased Upstate Chemicon 14-502
# T3 sequence (Q9Y243 whole entry): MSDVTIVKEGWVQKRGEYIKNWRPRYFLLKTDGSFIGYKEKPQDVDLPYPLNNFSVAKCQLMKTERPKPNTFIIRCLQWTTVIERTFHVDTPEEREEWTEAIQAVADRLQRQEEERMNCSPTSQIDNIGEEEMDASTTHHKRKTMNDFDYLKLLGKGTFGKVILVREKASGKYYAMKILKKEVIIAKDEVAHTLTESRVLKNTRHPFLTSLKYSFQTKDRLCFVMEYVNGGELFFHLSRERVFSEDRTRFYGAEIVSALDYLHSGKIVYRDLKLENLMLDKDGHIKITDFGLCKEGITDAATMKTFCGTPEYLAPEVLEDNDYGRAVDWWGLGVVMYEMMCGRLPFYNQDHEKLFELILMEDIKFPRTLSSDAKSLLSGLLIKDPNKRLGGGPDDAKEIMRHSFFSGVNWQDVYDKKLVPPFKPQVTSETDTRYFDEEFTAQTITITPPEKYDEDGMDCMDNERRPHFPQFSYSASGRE
# p70S6K human enzyme = biological target: T4, p70S6K human enzyme (Homo sapiens, UniProt P23443, T412E); assay: p70S6K inhibition assay (IMAP FP); conditions: 30 μM ATP; Ki=IC50/(1+([ATP Challenge]/EC50 ATP)); read-out: p70S6K Ki, Avg;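 also: kinase reaction run at room temperature, phosphorylated substrate captured on IMAP beads and read as fluorescence polarization in mP, IC50 then converted to Ki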
# T4 construct: purchased Upstate Chemicon 14-486
# T4 sequence (P23443 1-421 T412E limits assumed): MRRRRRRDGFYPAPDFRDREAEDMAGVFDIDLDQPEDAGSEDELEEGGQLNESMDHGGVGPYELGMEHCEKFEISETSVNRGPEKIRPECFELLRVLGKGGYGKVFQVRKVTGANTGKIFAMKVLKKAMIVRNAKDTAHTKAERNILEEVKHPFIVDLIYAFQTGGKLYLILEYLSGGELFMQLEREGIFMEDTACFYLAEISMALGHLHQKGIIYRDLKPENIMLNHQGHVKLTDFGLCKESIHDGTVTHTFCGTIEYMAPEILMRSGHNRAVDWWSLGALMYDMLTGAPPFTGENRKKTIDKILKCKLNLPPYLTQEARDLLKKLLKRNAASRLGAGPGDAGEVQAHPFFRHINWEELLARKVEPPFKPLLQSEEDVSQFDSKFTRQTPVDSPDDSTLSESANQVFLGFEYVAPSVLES
# [1] = 10 μM ATP, read-out: ROCK2 Ki, Avg
Structure (SMILES),"Ki (ROCK1; Avg, 10 μM ATP) [nM]",Ki (ROCK2; [1]) [nM],Ki (Akt3 human enzyme) [nM],Ki (p70S6K human enzyme) [nM],Ki (ROCK1; average Ki) [nM],"Ki (ROCK2; average Ki, read-out: ROCK2 Ki) [nM]"
"Fc1ccc(CN2CCC[C@@H](Nc3ccc4[nH]ncc4c3)C2)cc1 [Compound 1.146, (R)-N-(1-(4-fluorobenzyl)piperidin-3-yl)-1H-indazol-5-amine]",39.8,10.7,205,742,–,–
"Clc1cccc(CN2CCC[C@H](Nc3ccc4[nH]ncc4c3)C2)c1 [Compound 1.170, (S)-N-(1-(3-chlorobenzyl)piperidin-3-yl)-1H-indazol-5-amine]",80,12.5,7810,2050,–,–
"NC(=O)Cn1ccc2ccc(CN3CCC[C@@H](Nc4ccc5[nH]ncc5c4)C3)cc21 [Compound 1.106, (R)-2-(6-((3-(1H-indazol-5-ylamino)piperidin-1-yl)methyl)-1H-indol-1-yl)acetamide]",223,15.1,3910,1330,–,–
"O=C(COc1cccc(CN2CCC[C@@H](Nc3ccc4[nH]ncc4c3)C2)c1)N1CCOCC1 [Compound 1.127, (R)-2-(3-((3-(1H-indazol-5-ylamino)piperidin-1-yl)methyl)phenoxy)-1-morpholinoethanone]",96.6,11.2,975,2070,–,–
"COc1ccc(CN2CCC[C@@H](Nc3ccc4[nH]ncc4c3)C2)cc1 [Compound 1.226, (R)-N-(1-(4-methoxybenzyl)piperidin-3-yl)-1H-indazol-5-amine]",91.7,8.8,531,1350,–,–
"Fc1ccc(CN2CCC[C@H](Nc3ccc4[nH]ncc4c3)C2)cc1F [Compound 1.072, (S)-N-(1-(3,4-difluorobenzyl)piperidin-3-yl)-1H-indazol-5-amine]",33.7,5.6,4750,1130,–,–
"CSc1cccc(CN2CCC[C@@H](Nc3ccc4[nH]ncc4c3)C2)c1 [Compound 1.159, (R)-N-(1-(3-(methylthio)benzyl)piperidin-3-yl)-1H-indazol-5-amine]",48.1,10.1,1230,2060,–,–
"FC(F)(F)c1ccc(CN2CCC[C@@H](Nc3ccc4[nH]ncc4c3)C2)cc1 [Compound 1.178, (R)-N-(1-(4-(trifluoromethyl)benzyl)piperidin-3-yl)-1H-indazol-5-amine]",138,24.9,711,1120,–,–
"c1cc2cc(CN3CCC[C@@H](Nc4ccc5[nH]ncc5c4)C3)ccc2[nH]1 [Compound 1.143, (R)-N-(1-((1H-indol-5-yl)methyl)piperidin-3-yl)-1H-indazol-5-amine]",49.7,12.6,707,538,–,–
"Oc1cccc(CN2CCC[C@@H](Nc3ccc4[nH]ncc4c3)C2)c1 [Compound 1.145, (R)-3-((3-(1H-indazol-5-ylamino)piperidin-1-yl)methyl)phenol]",35,6.4,1190,2300,–,–
"c1ccc(CN2CCC[C@H](Nc3ccc4[nH]ncc4c3)C2)cc1 [Compound 1.227, (S)-N-(1-benzylpiperidin-3-yl)-1H-indazol-5-amine]",47.5,5.3,3480,1580,–,–
"CCc1ccc(CN2CCC[C@H](Nc3ccc4[nH]ncc4c3)C2)cc1 [Compound 1.154, (S)-N-(1-(4-ethylbenzyl)piperidin-3-yl)-1H-indazol-5-amine]",52.7,6.6,4950,1130,–,–
"C=Cc1ccc(CN2CCC[C@@H](Nc3ccc4[nH]ncc4c3)C2)cc1 [Compound 1.208, (R)-N-(1-(4-vinylbenzyl)piperidin-3-yl)-1H-indazol-5-amine]",54.2,12.9,346,721,–,–
"c1ccc(CN2CCC[C@@H](Nc3ccc4[nH]ncc4c3)C2)cc1 [Compound 1.110, (R)-N-(1-benzylpiperidin-3-yl)-1H-indazol-5-amine]",59,11.2,463,1300,–,–
"Brc1cccc(CN2CCC[C@H](Nc3ccc4[nH]ncc4c3)C2)c1 [Compound 1.183, (S)-N-(1-(3-bromobenzyl)piperidin-3-yl)-1H-indazol-5-amine]",165,16.8,9010,2480,–,–
"Cc1nc(CN2CC[C@@H](Nc3cccc4cnccc34)C2)c(C)o1 [Compound 2.091, (R)-N-(1-((2,5-dimethyloxazol-4-yl)methyl)pyrrolidin-3-yl)isoquinolin-5-amine]",776,237,–,–,–,–
"FC(F)(F)c1cccc(CN2CCC[C@H](Nc3ccc4[nH]ncc4c3)C2)c1 [Compound 1.169, (S)-N-(1-(3-(trifluoromethyl)benzyl)piperidin-3-yl)-1H-indazol-5-amine]",256,33.8,–,–,–,–

Structure (SMILES),"Ki (ROCK1; Avg, 10 μM ATP) [nM]",Ki (ROCK2; [1]) [nM],Ki (Akt3 human enzyme) [nM],Ki (p70S6K human enzyme) [nM],Ki (ROCK1; average Ki) [nM],"Ki (ROCK2; average Ki, read-out: ROCK2 Ki) [nM]"
"CC1(C)OC[C@H](COc2cccc(CN3CCC[C@@H](Nc4ccc5[nH]ncc5c4)C3)c2)O1 [Compound 1.222, N-((R)-1-(3-(((S)-2,2-dimethyl-1,3-dioxolan-4-yl)methoxy)benzyl)piperidin-3-yl)-1H-indazol-5-amine]",229,75.5,–,–,–,–
"CS(=O)(=O)Nc1cccc(CN2CCC[C@H](Nc3cccc4cnccc34)C2)c1 [Compound 2.037, (S)-N-(3-((3-(isoquinolin-5-ylamino)piperidin-1-yl)methyl)phenyl)methanesulfonamide]",921,182,–,–,–,–
"c1cc(CN2CC[C@@H](Nc3cccc4cnccc34)C2)cc(C2CC2)c1 [Compound 2.020, (R)-N-(1-(3-cyclopropylbenzyl)pyrrolidin-3-yl)isoquinolin-5-amine]",101,36.5,–,–,–,–
"Cc1ccc(CN2CC[C@@H](Nc3ccc4[nH]ncc4c3)C2)cc1 [Compound 1.242, (R)-N-(1-(4-methylbenzyl)pyrrolidin-3-yl)-1H-indazol-5-amine]",71.4,17.5,–,–,–,–
"O=C(O)COc1cccc(CN2CCC[C@@H](Nc3ccc4[nH]ncc4c3)C2)c1 [Compound 1.125, (R)-2-(3-((3-(1H-indazol-5-ylamino)piperidin-1-yl)methyl)phenoxy)acetic acid]",557,50.9,–,–,–,–
"c1cc(CN2CCC[C@@H](Nc3ccc4[nH]ncc4c3)C2)cc(-c2ccco2)c1 [Compound 1.250, (R)-N-(1-(3-(furan-2-yl)benzyl)piperidin-3-yl)-1H-indazol-5-amine]",247,45.8,–,–,–,–
"CCN(CC)C(=O)Nc1cccc(CN2CCC[C@@H](Nc3ccc4[nH]ncc4c3)C2)c1 [Compound 1.267, (R)-3-(3-((3-(1H-indazol-5-ylamino)piperidin-1-yl)methyl)phenyl)-1,1-diethylurea]",98.8,23.9,–,–,–,–
"O=S(=O)(Nc1cccc(CN2CCC[C@H](Nc3ccc4[nH]ncc4c3)C2)c1)N1CCCCC1 [Compound 1.270, (S)-N-(3-((3-(1H-indazol-5-ylamino)piperidin-1-yl)methyl)phenyl)piperidine-1-sulfonamide]",130,9.9,–,–,130,9.9
"FC(F)(F)c1cccc(CN2CC[C@@H](Nc3cccc4cnccc34)C2)c1 [Compound 2.049, (R)-N-(1-(3-(trifluoromethyl)benzyl)pyrrolidin-3-yl)isoquinolin-5-amlne]",113,48,–,–,–,–
"CCOC(=O)c1ccc(CN2CCC[C@@H](Nc3ccc4[nH]ncc4c3)C2)cc1 [Compound 1.209, (R)-ethyl 4-((3-(1H-indazol-5-ylamino)piperidin-1-yl)methyl)benzoate]",4590,470,–,–,–,–
"COc1ccc(CN2CC[C@@H](Nc3cccc4cnccc34)C2)cc1OCCO [Compound 2.067, (R)-2-(5-((3-(isoquinolin-5-ylamino)pyrrolidin-1-yl)methyl)-2-methoxyphenoxy)ethanol]",19.6,4.2,–,–,19.6,4.2
"COc1ccc(CN2CCC[C@H](Nc3cccc4cnccc34)C2)cc1 [Compound 2.053, (S)-N-(1-(4-methoxybenzyl)piperidin-3-yl)isoquinolin-5-amine]",952,182,–,–,–,–
"OCCn1cc(CN2CCC[C@@H](Nc3ccc4[nH]ncc4c3)C2)c2ccccc21 [Compound 1.273, (R)-2-(3-((3-(1H-indazol-5-ylamino)piperidin-1-yl)methyl)-1H-indol-1-yl)ethanol]",31.3,8.2,–,–,31.3,8.2
"CC(=O)NCCOc1cccc(CN2CCC[C@@H](Nc3ccc4[nH]ncc4c3)C2)c1 [Compound 1.211, (R)-N-(2-(3-((3-(1H-indazol-5-ylamino)piperidin-1-yl)methyl)phenoxy)ethyl)acetamide]",395,57.6,–,–,–,–
"CCSc1ccc(CN2CCC[C@@H](Nc3ccc4[nH]ncc4c3)C2)cc1 [Compound 1.189, (R)-N-(1-(4-(ethylthio)benzyl)piperidin-3-yl)-1H-indazol-5-amine]",188,34.3,–,–,–,–
"CS(=O)(=O)Nc1cccc(CN2CC[C@H](Nc3ccc4[nH]ncc4c3)C2)c1 [Compound 1.095, (S)-N-(3-((3-(1H-indazol-5-ylamino)pyrrolidin-1-yl)methyl)phenyl)methanesulfonamide]",275,49.5,–,–,–,–
"O=[N+]([O-])c1cc(CN2CC[C@@H](Nc3cccc4cnccc34)C2)cs1 [Compound 2.089, (R)-N-(1-((5-nitrothiophen-3-yl)methyl)pyrrolidin-3-yl)isoquinolin-5-amine]",102,32.9,–,–,–,–
